Assay results reported in ChEMBL document CHEMBL2074472, “In vitro and in vivo reversal of cancer cell multidrug resistance by the semi-synthetic antibiotic tiamulin” (Biochem Pharmacol, 1998).

Legend:
Type in all cases: functional, cell-based
[1] = target: ATP-dependent translocase ABCB1 (Homo sapiens, UniProt P08183); assay: TP_TRANSPORTER: increase in Daunomycin intracellular accumulation (Daunomycin: 1.9 uM, Tiamulin: 2 uM) in CEM/VLB3.6 cells, flow cytometry; details: cem/vlb3.6, 2 µM
[2] = target: ATP-dependent translocase ABCB1 (Mus musculus, UniProt P21447); assay: TP_TRANSPORTER: increase in Daunomycin intracellular accumulation (Daunomycin: 1.9 uM, Tiamulin: 2 uM) in P388/ADR25 cells, flow cytometry; details: p388/adr25, 2 µM
[3] = target: Multidrug resistance protein 1a (Rattus norvegicus) (UniProt Q6PSM0); assay: TP_TRANSPORTER: increase in Daunomycin intracellular accumulation (Daunomycin: 1.9 uM, Tiamulin: 2 uM) in AS30-D/COL10 cells, flow cytometry
Multidrug resistance protein 1a (Rattus norvegicus), sequence (Q6PSM0 as listed by the source): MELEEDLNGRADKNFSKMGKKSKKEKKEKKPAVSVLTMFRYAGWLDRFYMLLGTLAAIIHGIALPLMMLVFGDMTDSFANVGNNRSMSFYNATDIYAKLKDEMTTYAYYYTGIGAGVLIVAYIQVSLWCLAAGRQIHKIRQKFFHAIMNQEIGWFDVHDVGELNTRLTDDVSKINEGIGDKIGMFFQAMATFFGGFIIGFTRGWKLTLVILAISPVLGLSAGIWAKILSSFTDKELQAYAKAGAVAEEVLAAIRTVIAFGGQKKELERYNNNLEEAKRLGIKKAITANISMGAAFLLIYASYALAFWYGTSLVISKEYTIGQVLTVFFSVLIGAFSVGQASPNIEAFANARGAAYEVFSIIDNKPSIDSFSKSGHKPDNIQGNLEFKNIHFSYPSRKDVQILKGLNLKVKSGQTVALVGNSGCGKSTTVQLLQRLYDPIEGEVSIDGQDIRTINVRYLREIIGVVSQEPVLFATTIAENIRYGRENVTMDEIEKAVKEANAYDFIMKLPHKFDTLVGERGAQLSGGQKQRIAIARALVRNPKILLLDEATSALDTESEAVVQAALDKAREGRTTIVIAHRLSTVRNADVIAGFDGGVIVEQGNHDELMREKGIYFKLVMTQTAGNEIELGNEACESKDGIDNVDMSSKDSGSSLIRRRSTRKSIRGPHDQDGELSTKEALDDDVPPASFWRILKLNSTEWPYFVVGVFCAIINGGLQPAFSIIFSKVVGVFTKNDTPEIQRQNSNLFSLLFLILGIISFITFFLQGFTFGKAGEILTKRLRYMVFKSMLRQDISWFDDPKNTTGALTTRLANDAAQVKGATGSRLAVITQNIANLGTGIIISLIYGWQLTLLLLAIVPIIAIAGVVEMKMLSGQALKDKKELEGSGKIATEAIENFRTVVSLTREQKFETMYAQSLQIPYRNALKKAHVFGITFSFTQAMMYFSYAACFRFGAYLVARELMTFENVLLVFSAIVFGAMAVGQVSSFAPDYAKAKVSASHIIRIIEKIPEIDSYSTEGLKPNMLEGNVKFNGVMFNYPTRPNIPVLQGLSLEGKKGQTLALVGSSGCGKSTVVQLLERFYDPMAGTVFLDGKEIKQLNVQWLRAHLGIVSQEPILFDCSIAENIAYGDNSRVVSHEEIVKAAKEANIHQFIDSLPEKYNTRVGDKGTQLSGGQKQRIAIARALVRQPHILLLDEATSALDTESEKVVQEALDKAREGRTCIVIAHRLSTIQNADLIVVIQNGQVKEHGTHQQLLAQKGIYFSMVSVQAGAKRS

ATP-dependent translocase ABCB1 (Mus musculus, UniProt P21447), sequence (P21447 whole entry): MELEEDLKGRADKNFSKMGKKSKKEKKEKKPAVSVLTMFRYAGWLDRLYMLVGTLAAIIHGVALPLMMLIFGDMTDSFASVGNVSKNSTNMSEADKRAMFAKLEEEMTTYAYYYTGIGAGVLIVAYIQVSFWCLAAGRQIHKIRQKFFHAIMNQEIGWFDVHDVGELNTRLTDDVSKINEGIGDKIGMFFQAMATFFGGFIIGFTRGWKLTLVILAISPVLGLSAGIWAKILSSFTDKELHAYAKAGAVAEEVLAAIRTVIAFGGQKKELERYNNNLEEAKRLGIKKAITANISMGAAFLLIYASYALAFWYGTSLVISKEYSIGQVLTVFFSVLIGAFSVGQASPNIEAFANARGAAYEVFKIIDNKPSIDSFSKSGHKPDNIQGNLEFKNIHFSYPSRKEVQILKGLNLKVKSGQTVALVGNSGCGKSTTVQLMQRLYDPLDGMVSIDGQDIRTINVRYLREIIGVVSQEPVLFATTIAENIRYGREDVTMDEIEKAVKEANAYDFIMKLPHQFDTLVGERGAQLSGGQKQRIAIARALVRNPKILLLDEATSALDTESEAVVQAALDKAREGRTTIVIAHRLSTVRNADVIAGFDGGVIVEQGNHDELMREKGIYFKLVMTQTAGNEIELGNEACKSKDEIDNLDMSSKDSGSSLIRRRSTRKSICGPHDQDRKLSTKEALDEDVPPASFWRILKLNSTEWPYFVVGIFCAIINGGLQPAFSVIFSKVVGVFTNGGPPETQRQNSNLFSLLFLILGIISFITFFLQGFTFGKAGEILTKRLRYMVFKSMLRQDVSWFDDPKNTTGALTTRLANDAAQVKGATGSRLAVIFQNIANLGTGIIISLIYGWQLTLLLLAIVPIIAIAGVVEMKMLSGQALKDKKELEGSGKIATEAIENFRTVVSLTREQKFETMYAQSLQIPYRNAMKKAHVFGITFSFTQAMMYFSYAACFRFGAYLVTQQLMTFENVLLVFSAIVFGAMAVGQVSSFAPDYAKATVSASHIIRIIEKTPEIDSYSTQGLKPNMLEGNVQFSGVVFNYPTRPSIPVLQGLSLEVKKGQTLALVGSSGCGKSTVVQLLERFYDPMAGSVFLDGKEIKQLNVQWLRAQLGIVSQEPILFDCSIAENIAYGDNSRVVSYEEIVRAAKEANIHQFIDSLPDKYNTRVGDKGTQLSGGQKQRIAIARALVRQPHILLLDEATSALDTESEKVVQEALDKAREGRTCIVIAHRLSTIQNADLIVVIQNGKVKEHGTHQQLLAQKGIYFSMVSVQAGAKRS
ATP-dependent translocase ABCB1 (Homo sapiens, UniProt P08183), sequence (P08183 whole entry): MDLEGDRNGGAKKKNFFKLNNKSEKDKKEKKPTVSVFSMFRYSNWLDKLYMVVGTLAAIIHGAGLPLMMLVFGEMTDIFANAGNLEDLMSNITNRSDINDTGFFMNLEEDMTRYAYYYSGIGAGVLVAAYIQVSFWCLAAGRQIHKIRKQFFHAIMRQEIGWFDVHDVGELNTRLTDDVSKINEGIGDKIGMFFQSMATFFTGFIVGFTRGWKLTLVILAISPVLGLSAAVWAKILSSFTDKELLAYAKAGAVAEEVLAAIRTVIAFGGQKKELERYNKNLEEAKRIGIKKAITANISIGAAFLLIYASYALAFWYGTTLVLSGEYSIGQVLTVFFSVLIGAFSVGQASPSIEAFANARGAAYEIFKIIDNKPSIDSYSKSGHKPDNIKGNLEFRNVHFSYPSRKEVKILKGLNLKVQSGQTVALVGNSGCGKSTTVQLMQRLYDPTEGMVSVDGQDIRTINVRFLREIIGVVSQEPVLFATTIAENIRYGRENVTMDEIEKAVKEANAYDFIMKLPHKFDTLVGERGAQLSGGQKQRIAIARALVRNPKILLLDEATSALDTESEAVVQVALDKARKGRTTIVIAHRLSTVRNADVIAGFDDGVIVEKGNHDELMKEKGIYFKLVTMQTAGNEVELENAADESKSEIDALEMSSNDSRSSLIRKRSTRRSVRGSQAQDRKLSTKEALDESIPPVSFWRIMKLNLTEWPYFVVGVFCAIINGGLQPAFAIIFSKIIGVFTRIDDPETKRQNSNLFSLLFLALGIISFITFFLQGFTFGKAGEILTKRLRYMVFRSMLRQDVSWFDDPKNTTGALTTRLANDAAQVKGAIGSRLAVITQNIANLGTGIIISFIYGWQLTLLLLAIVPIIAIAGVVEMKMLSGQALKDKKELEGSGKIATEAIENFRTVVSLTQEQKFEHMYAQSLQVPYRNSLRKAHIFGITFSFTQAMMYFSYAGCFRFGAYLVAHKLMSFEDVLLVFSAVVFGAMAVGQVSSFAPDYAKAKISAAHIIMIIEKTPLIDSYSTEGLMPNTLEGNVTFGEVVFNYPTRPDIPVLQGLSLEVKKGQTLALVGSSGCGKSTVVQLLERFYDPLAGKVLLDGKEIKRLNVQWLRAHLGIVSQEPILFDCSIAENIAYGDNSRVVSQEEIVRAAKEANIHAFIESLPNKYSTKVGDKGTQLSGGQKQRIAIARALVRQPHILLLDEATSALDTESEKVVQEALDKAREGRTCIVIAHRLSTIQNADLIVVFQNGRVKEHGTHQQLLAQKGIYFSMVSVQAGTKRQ

Activity [1]: inhibitor [+] | Activity [2]: inhibitor [+] | Activity [3]: inhibitor [+]
Compound: C=C[C@]1(C)C[C@@H](OC(=O)CSCCN(CC)CC)[C@]2(C)[C@H](C)CC[C@]3(CCC(=O)[C@H]32)[C@@H](C)[C@@H]1O [TIAMULIN]
